Experimental data reported in the supplement of paper PMC10331698.
± gives the standard deviation of the averaged measurements.

What was measured:
Assay in all cases: level (log10 ratio to DMSO vehicle control); higher = higher biomarker level / cell amount than vehicle control
Details in all cases: in DMSO
Methotrexate = compound: CN(Cc1cnc2nc(N)nc(N)c2n1)c1ccc(C(=O)N[C@@H](CCC(=O)O)C(=O)O)cc1 [Methotrexate]
Protocol: (§1)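 BioMAP Diversity Plus panel of 12 human primary cell co-culture systems (3C, 4H, LPS, SAg, BT, BF4T, BE3C, CASM3C, HDF3CGF, KF3CT, MyoF, Mphg). Compounds were added 1 h before stimulation and left for 24 h (MyoF 48 h; BT 72 h for soluble read-outs or 6 d for IgG). Biomarkers were read by ELISA, cytotoxicity by SRB, PBMC viability and proliferation by Alamar Blue. Each well value was divided by the mean of 8 DMSO control wells on the same plate and log10 transformed; duplicate blinded samples were tested at 4 concentrations.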

[1] = compound: Cc1ccc(S(=O)(=O)OCC(F)(F)C(F)(F)C(F)(F)C(F)(F)C(F)(F)C(F)F)cc1 [1H,1H,7H-Perfluoroheptyl 4-methylbenzenesulfonate]
Protocol: as §1

[2] = compound: FC(F)(F)COC(OCC(F)(F)F)OCC(F)(F)F [tris(Trifluoroethoxy)methane]
Protocol: as §1

Tetrafluorosuccinic acid = compound: O=C(O)C(F)(F)C(F)(F)C(=O)O [Tetrafluorosuccinic acid]
Protocol: as §1

Perfluorooctanoic acid = compound: O=C(O)C(F)(F)C(F)(F)C(F)(F)C(F)(F)C(F)(F)C(F)(F)C(F)(F)F [Perfluorooctanoic acid]
Protocol: as §1

Perfluoropinacol = compound: OC(C(F)(F)F)(C(F)(F)F)C(O)(C(F)(F)F)C(F)(F)F [Perfluoropinacol]
Protocol: as §1

| Test System | level (log10) (Methotrexate; 1500 nM) | level (log10) (Methotrexate; 4400 nM) | level (log10) (Methotrexate; 13000 nM) | level (log10) (Methotrexate; 40000 nM) | level (log10) ([1]; 6700 nM) | level (log10) ([1]; 20000 nM) | level (log10) ([1]; 60000 nM) | level (log10) ([2]; 6700 nM) | level (log10) ([2]; 20000 nM) | level (log10) ([2]; 60000 nM) | level (log10) (Tetrafluorosuccinic acid; 6700 nM) | level (log10) (Tetrafluorosuccinic acid; 20000 nM) | level (log10) (Tetrafluorosuccinic acid; 60000 nM) | level (log10) (Perfluorooctanoic acid; 6700 nM) | level (log10) (Perfluorooctanoic acid; 20000 nM) | level (log10) (Perfluorooctanoic acid; 60000 nM) | level (log10) (Perfluoropinacol; 6700 nM) | level (log10) (Perfluoropinacol; 20000 nM) |
| --- | --- | --- | --- | --- | --- | --- | --- | --- | --- | --- | --- | --- | --- | --- | --- | --- | --- | --- |
| KF3CT:TIMP-2 | -0.029 ± 0.035 | -0.034 ± 0.069 | -0.0325 ± 0.06 | -0.0195 ± 0.088 | -0.0015 ± 0.005 | 0.0025 ± 0.029 | 0.017 ± 0.021 | -0.0025 ± 0.021 | -0.007 ± 0.011 | -0.0045 ± 0.012 | 0 ± 0.0071 | 0.0365 ± 0.005 | 0.027 ± 0.024 | -0.0195 ± 0.015 | 0.0025 ± 0.016 | 0.035 ± 0.038 | 0.013 ± 0.0085 | 0.0745 ± 0.0064 |
| HDF3CGF:Collagen III | 0.0115 ± 0.061 | -0.002 ± 0.072 | 0.004 ± 0.013 | -0.026 ± 0.086 | -0.0605 ± 0.03 | -0.0435 ± 0.011 | -0.048 ± 0.073 | -0.013 ± 0.0071 | -0.0205 ± 0.0092 | 0.0075 ± 0.016 | -0.058 ± 0.057 | -0.0805 ± 0.059 | -0.118 ± 0.02 | 0.012 ± 0.011 | 0.0255 ± 0.0078 | 0.0155 ± 0.053 | 0.0175 ± 0.0078 | -0.0845 ± 0.0064 |
| KF3CT:CCL2/MCP-1 | 0.052 ± 0.023 | -0.0125 ± 0.03 | -0.016 ± 0.024 | 0.0165 ± 0.0021 | 0.0035 ± 0.028 | -0.077 ± 0.025 | -0.009 ± 0.048 | -0.021 ± 0.035 | -0.029 ± 0.0085 | 0.0315 ± 0.052 | -0.05 ± 0.0085 | -0.042 ± 0.021 | -0.0065 ± 0.07 | 0.005 ± 0.018 | 0.0145 ± 0.029 | -0.0785 ± 0.011 | 0.0955 ± 0.013 | 0.211 ± 0.024 |
| HDF3CGF:TIMP-1 | -0.08 ± 0.073 | -0.047 ± 0.082 | -0.0525 ± 0.14 | -0.0755 ± 0.1 | -0.026 ± 0.027 | -0.0285 ± 0.047 | -0.023 ± 0.025 | -0.0195 ± 0.047 | 0.011 ± 0.02 | -0.001 ± 0.042 | -0.05 ± 0.023 | -0.017 ± 0.0042 | -0.0155 ± 0.035 | -0.015 ± 0.034 | -0.029 ± 0.0099 | 0.0155 ± 0.00071 | 0.015 ± 0.027 | 0.0205 ± 0.032 |
| HDF3CGF:CD106/VCAM-1 | 0.028 ± 0.031 | 0.01 ± 0.03 | 0.0355 ± 0.069 | -0.0225 ± 0.1 | -0.061 ± 0.013 | -0.046 ± 0.016 | -0.0335 ± 0.0035 | 0.0315 ± 0.018 | -0.0275 ± 0.021 | -0.0325 ± 0.059 | 0.003 ± 0.027 | -0.029 ± 0.037 | -0.033 ± 0.045 | -0.0055 ± 0.005 | -0.011 ± 0.017 | -0.024 ± 0.013 | -0.089 ± 0.037 | -0.228 ± 0.0014 |
| MyoF:alpha-SM Actin | -0.001 ± 0.0028 | -0.0225 ± 0.0092 | -0.008 ± 0.0071 | -0.017 ± 0.033 | -0.052 ± 0.011 | -0.0625 ± 0.022 | -0.0765 ± 0.019 | 0.0075 ± 0.019 | 0 ± 0.011 | -0.012 ± 0.025 | 0.0065 ± 0.025 | -0.0165 ± 0.015 | -0.0275 ± 0.037 | 0.014 ± 0.02 | 0.0155 ± 0.047 | -0.0035 ± 0.032 | -0.004 ± 0.0028 | -0.14 ± 0.035 |
| CASM3C:CD142/Tissue Factor | 0.0505 ± 0.005 | 0.0195 ± 0.049 | 0.0265 ± 0.042 | 0.0305 ± 0.026 | -0.038 ± 0.014 | -0.057 ± 0.047 | -0.0205 ± 0.03 | 0.0185 ± 0.047 | -0.011 ± 0.0085 | -0.0275 ± 0.016 | -0.0165 ± 0.026 | -0.0345 ± 0.00071 | -0.025 ± 0.024 | -0.0055 ± 0.039 | -0.008 ± 0.048 | -0.0345 ± 0.061 | -0.0515 ± 0.022 | -0.0235 ± 0.06 |
| CASM3C:CXCL9/MIG | 0.0375 ± 0.021 | 0.0225 ± 0.0092 | 0.0165 ± 0.026 | 0.0615 ± 0.035 | -0.0085 ± 0.011 | -0.0195 ± 0.013 | 0.0135 ± 0.0021 | 0.0015 ± 0.012 | -0.0115 ± 0.0064 | -0.0145 ± 0.005 | -0.006 ± 0.0099 | -0.0135 ± 0.0021 | 0.014 ± 0.0085 | 0.016 ± 0.0085 | -0.0065 ± 0.04 | 0.042 ± 0.076 | -0.013 ± 0.02 | -0.0335 ± 0.011 |
